In brackets after ≈: the same amount, converted by molar mass. Read-outs that look alike come from different tables or passages of the source.

This is an account of results in PMC4125160, “Neurotoxicity and Mode of Action of N, N-Diethyl-Meta-Toluamide (DEET)” (PLoS ONE, 2014).

Series [1] concerns DmAChE, human AChE and butyrylcholinesterase. Further details: method as in PMID 19656357. The settings on record: cited from earlier work.
Series [2] concerns M. domestica. The series can be described thus: Topical toxicity bioassay. The class given is in vivo, Musca domestica. Here is the method: (§1) Topical toxicity bioassays on adult female mosquitoes were performed based on the method of Pridgeon et al.. Briefly, insects were chilled on ice for 3 min, during which the appropriate volume (200 nL for mosquitoes, 1 µL for Musca) of chemical (dissolved in 95% ethanol) was applied onto the abdomen using a handheld Hamilton microapplicator. For each inhibitor, five doses were applied to groups of ten insects each and repeated three times. An ethanol-only treatment was included in each experiment as a negative control. Insects were transferred into a holding chamber post-treatment and supplied with free access to sugar water for the duration of the experiment. […] Three LD50 values were obtained and the mean LD50 value was calculated and used for statistical analysis.
(§2) For all toxicity assays, control mortality was corrected for using Abbots formula [19]; where corrected percent mortality = (% alive in control–% alive in treated) /% alive in control.

The subject of series [3] is Ae. aegypti. The series is described as follows: WHO filter paper contact toxicity bioassay. In kind it is in vivo. The settings on record: Aedes aegypti; WHO filter paper assay, 1 h exposure, mortality at 24 h; read-out: LC50 (95% CI).
Series [4] deals with firefly light organ. The series can be described thus: In vivo assay for effects on firefly light organ. Also on record: species or system Photinus pyralis. How it is done:
Adult firefly beetles (Photinus sp.) were collected locally (Nashville, TN) and housed in well-ventilated chambers with tree leaves. The animals had free access to 10% sucrose solution. Chemicals were dissolved in absolute ethanol and 1 µL was topically applied directly to the ventral light organ with the use of a manual pipettor. Prior to DEET application, the beetles were immobilized with molten parafilm and were mounted on corrugated cardboard for the duration of the study. Due to the time required for bioactivation of CDM, insects were treated with 1 µL of CDM and were released back into the holding chamber for three hours. After three hours, they were mounted in the previously described manner and monitored for activation of the lantern. Photographs were captured with a handheld camera (Canon PowerShot SX110 IS). Pictures were captured within five minutes, four hours, and 10 minutes post application for DEET, CDM, and propoxur, respectively. DEET- and propoxur-treated insects were monitored for at least 1 hour post exposure to ensure the response was not slow acting. The original photographs were cropped and background shadows were enhanced to increase detail of the insect using Adobe Photoshop PS5 (Adobe Systems, San Jose, CA, USA). The color or brightness of the light organ was not manipulated in any way during post-processing of the image.

In series [5] the test system is octopamine receptors of Sf21 cells. The series is described as follows: Calcium fluorescence assay in Sf21 cells. The settings on record: 100 µM. The class given is cell-based. How it is done: The Sf21 insect cell line was obtained from a commercial supplier (Invitrogen, Carlsbad, CA, USA) and maintained in log phase culture in Trichoplusia ni Medium-Formulation Hink (TNM-FH) from Sigma-Aldrich (St. Louis, MO, USA), supplemented with 10% fetal bovine serum and 100 U/ml penicillin and streptomycin (Sigma-Aldrich). Cells were cultured in a non-humidified environment and maintained at 27°C. Sf21 cells were passaged every 3–5 days according to manufacturer's instructions, and maintained for about 30 passes before being replaced by fresh cells.
Sf21 cells were plated into 96-well black-wall, clear bottom plates 24 h before calcium fluorescence assay. […] The octopamine receptor antagonist phentolamine (100 µM) was co-incubated with cells for 1 h before drug challenge. Phentolamine, octopamine, and DEET were dissolved in water, while propoxur was dissolved in 100% DMSO to make a stock solution, and in the assay, DMSO was kept to 0.1%. The experiment was repeated in triplicate with different plates of cells to obtain means and SEMs for each experimental condition.

The subject of series [6] is housefly larval central nervous system. The series can be described thus: Neurophysiological recordings of CNS nerve discharge in housefly larvae. Conditions: Musca domestica; intact CNS; value (95% CI); read-out: EC50, excitation of nerve firing.
For series [7], the system named is mosquitoes. The series can be described thus: Toxicity to mosquitoes (abstract summary). In kind it is in vivo. How it is done:
as §1

Series [8] deals with A. gambiae (AKRON). The series is described as follows: Topical toxicity bioassay on adult females. The class given is in vivo, Anopheles gambiae. How it is done:
as §1, §2

For series [9], the system named is A. gambiae (G3). The series can be described thus: Topical toxicity bioassay on adult females. In kind it is in vivo, Anopheles gambiae. Conditions: topical application, ng of compound/mg of mosquito weight, 24 hr. Here is the method: as §1, §2
Series [10] concerns housefly larval central nervous system. The series is described as follows: Neurophysiological recordings of CNS nerve discharge in housefly larvae. Also on record: species or system Musca domestica. Conditions: for EC50: Musca domestica. Here is the method: Neurophysiological recordings were performed on the central and peripheral nervous systems of larval Musca domestica. Glass pipette electrodes were pulled from borosilicate glass capillaries on a P-1000 Flaming/Brown micropipette puller (Sutter Instrument, Novato CA, USA). For CNS recordings, it was first excised from the larvae and placed in a separate dish with physiological saline (200 µL) containing: 157 mM NaCl, 3 mM KCl, 2 mM CaCl2, and 4 mM HEPES, pH = 7.25. The CNS was manually transected posterior to the cerebral lobes to disrupt the blood-brain barrier and enhance chemical penetration. Any convenient peripheral nerve trunks were pulled into a recording suction electrode. Amplification and digitization of descending electrical activity originating from the CNS were converted on-line into a rate plot, expressed in Hz (MacLab analog to digital converter hardware and LabChart 7 software, ADInstruments, Colorado Springs, CO, USA). […] After a baseline was established, the CNS preparation was directly exposed to test compound by adding 200 µL of solution to the bath containing 200 µL of saline. The final concentration of solvent in the bath was 0.1% DMSO. Each concentration was recorded for 3–5 min prior to the addition of the next drug concentration. […] Each drug concentration was replicated 3-5 times.

For series [11], the system named is Aedes aegypti. The series is described as follows: Topical toxicity bioassay on adult females. In kind it is in vivo. The settings on record: for signs of intoxication: DEET lethal doses, propoxur 1 ng/insect, five minutes after treatment; for LD50 (95% CI): topical application, ng of compound/mg body weight, 24 hr. Here is the method: as §1, §2
For series [12], the system named is rats. Further details: method as in ref 24 = [24]; 24 Macko J , Weeks M ( 1980 ) Phase 6: Acute toxicity evaluation of N,N-diethyl-meta-toluamide (M-Det.) . U.S. Army Environmental Hygiene Agency Study No.71-51-0034-81. The settings on record: oral administration to rats ref 24; cited from earlier work.

One may read the LC50 as the concentration lethal to half of the exposed cells or organisms. As usually defined, the EC50 is the concentration that produces a half-maximal response. Consider `CCN(CC)C(=O)c1cccc(C)c1` [DEET, N, N-diethyl-meta-toluamide], for which the “concentrations showing inhibitory effects” value in series [1] was 0.1 to 10 mM. Also, the “LD50 (95% CI)” value was 8104 (7026–9000)c ng/mg in [2] (topical application, 24 hr); 1472 (1136–1806)b ng/mg in series [8] (topical application, ng of compound/mg of mosquito weight, 24 hr); 1175 (988–1361)a ng/mg in series [9]; 1102 (836–1367)a ng/mg in series [11]. For the same molecule, the signs of intoxication result in [2] (toxicologically equivalent doses) was “mostly lethargic with only occasional bouts of excitation”; in [11], “both hyperexcitatory and lethargic tendencies”. Further, the LC50 in series [3] was found to be 2300 mg/L (≈ 12 mM). Besides, the lantern illumination entry in series [4] (5 µg topically on light organ) is “Bright and complete illumination of the lantern”; in [4] (1 and 2.5 µg topically on light organ), “Faint illumination in circumscribed areas of the lantern”. The “period the lantern remained active” value in series [4] (5 µg, majority of individuals) lay within 10 to 60 s. Also, the “interval of repeated activation of the lantern” value in series [4] (controls flashed every 45-90 seconds) was 10 to 20 s. Moreover, in series [5] (over control cells), the “increase in calcium fluorescence” value is recorded as “ca. 30%”. Also, the EC50 in series [6] worked out at 210 µM; in series [10] (abstract, read-out: EC50, excitatory effects), 120 µM. Also, the LD50 entry in [7] was “ca. 1.5 µg/mg”; in series [12] it was “ca. 3000 mg/kg”. In series [8] (topical application after 4 hr pretreatment with 200 ng PBO), the “LD50 (+PBO) (95% CI)” value is 1247 (872–1526)a ng/ml. Further, in series [10], the “threshold concentration for neuroexcitation” value is recorded as “about 50 µM”.

For `CNC(=O)Oc1ccccc1OC(C)C` [propoxur], the lantern illumination result in series [4] (1 µg topically on light organ) is listed as “no changes in lantern illumination”. The “effect on calcium fluorescence in words” value in series [5] is on record as “no effect”. For the same molecule, the EC50 in [10] (Fig. 3C, read-out: EC50 for increasing spike frequency in the CNS) is 0.344 µM. Moreover, in [11], the signs of intoxication result is reported as “intense hyperexcitation in the absence of any physical stimulation” and the “LD50 (95% CI)” value was 1.4 (95% CI: 0.9–2.1) ng/mg.
